Values quoted from earlier work in patent publication US20160136091A1, “Orally Disintegrating Tablet” (SANWA KAGAKU KENKYUSHO CO., LTD., priority 2013, published 2016).

Details: 20+5° C.

Row | Structure (SMILES) | Amount of water required to dissolve 1 g
1 | OCCN1C[C@H](O)[C@@H](O)[C@H](O)[C@H]1CO [miglitol] | less than 10 mL
2 | Cn1c(=O)c2[nH]cnc2n(C)c1=O [theophylline] | less than 1,000 mL
